Data from paper PMC7718273 (Scientific Reports, 2020).
Where two headings read alike, the source gives them in different places.

Tests used:
[1] = test system: T1, recombinant human FAP; assay: FAP-mediated cleavage of hFGF21 in cell-free system (SDS-PAGE/immunoblot); format: biochemical; settings: hFGF21 200 nM, hFAP 50 nM, SDS-PAGE
T1 construct: purchased R&D Systems 3715-SE

[2] = target: T2, serum FAP (Mus musculus, UniProt P97321); assay: IC50 on serum FAP, mice; format: biochemical
T2 construct: from tissue; host or cells: mouse serum/plasma (ob/ob and C57BL/6J mice)
T2 sequence (P97321 24-761 limits assumed): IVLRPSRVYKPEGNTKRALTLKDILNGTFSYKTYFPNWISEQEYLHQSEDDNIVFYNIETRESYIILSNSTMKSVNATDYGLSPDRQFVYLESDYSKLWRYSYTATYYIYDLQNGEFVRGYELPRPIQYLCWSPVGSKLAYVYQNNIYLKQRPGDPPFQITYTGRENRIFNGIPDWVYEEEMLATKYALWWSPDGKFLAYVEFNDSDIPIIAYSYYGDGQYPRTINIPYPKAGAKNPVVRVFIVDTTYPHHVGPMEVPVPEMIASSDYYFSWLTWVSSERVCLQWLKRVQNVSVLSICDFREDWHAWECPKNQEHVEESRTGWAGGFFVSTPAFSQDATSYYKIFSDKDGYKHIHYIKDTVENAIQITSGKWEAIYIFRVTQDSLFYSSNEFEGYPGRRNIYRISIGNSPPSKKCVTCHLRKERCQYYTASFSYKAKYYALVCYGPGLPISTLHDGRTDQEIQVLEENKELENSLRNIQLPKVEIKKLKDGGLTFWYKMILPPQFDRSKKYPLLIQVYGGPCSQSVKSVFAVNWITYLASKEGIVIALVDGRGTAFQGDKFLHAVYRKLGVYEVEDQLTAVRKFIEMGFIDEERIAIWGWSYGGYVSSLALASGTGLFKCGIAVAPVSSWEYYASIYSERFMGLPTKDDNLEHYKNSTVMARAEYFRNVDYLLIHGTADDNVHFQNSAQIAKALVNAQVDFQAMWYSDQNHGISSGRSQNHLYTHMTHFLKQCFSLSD

[3] = test system: Normal cynomolgus monkeys; assay: In vivo study using cynomolgus monkeys: plasma concentration and intact FGF21; settings: cynomolgus monkeys (n = 3), 50 mg/kg intranasal, range of individual animals
Description: Intact FGF21 levels in plasma were measured by ELISA.
FAP activity and intact FGF21 concentrations were measured as described above.

With `N#Cc1ccc(Cc2nc(C(=O)NCC(=O)N3CC(F)(F)C[C@H]3C#N)cs2)cc1` [BR103354, (S)-N-(2-(2-cyano-4,4-difluoropyrrolidin-1-yl)-2-oxoethyl)-2-(4-cyanobenzyl)thiazole-4-carboxamide] the “concentration from which FAP-mediated hFGF21 cleavage was inhibited” value [1] was 0.4 µM, the IC50 ([2]; mice, monkeys and humans together, read-out: serum FAP IC50 values, all three species) was 27 to 31 nM and the IC50 ([2]; read-out: Serum FAP IC50 (nM): Mouse) was 31 nM. For the same molecule, the “increase of intact FGF21, maximal” value [3] was 1.5–3.5 fold.
